Columns and labels:
PDGF-R = PDGF-R (Homo sapiens, UniProt P09619); assay: PDGF-R ELISA; format: cell-based
Source text: A PDGF-R ELISA is described in International Patent Publication No. WO 96/40116, published December 19, 1996 by Tang et al.

EGFR = target: T1, EGFR (Homo sapiens, UniProt P00533); assay: EGFR ELISA assay (in vitro kinase activity, EGFR captured from A431 cell lysate); format: biochemical; design: concentration or dose not given beside the values
T1 construct: Add 7 ug A431 cell lysate per well (EGFR source); endogenous in cells; host or cells: A431
How it was run: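 Receptor autophosphorylation was read by ELISA: anti-phosphotyrosine serum and an HRP-linked secondary with ABTS substrate, absorbance at 410 nm (reference 630 nm). The reaction ran 5 min with 3 µM ATP and 5 mM MnCl2 and was quenched by 20 mM EDTA. Compounds were first incubated 30 min with antibody-captured EGFR from A431 cell lysate.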

Chain of PDGF-R (P09619 33-1106, species assumed): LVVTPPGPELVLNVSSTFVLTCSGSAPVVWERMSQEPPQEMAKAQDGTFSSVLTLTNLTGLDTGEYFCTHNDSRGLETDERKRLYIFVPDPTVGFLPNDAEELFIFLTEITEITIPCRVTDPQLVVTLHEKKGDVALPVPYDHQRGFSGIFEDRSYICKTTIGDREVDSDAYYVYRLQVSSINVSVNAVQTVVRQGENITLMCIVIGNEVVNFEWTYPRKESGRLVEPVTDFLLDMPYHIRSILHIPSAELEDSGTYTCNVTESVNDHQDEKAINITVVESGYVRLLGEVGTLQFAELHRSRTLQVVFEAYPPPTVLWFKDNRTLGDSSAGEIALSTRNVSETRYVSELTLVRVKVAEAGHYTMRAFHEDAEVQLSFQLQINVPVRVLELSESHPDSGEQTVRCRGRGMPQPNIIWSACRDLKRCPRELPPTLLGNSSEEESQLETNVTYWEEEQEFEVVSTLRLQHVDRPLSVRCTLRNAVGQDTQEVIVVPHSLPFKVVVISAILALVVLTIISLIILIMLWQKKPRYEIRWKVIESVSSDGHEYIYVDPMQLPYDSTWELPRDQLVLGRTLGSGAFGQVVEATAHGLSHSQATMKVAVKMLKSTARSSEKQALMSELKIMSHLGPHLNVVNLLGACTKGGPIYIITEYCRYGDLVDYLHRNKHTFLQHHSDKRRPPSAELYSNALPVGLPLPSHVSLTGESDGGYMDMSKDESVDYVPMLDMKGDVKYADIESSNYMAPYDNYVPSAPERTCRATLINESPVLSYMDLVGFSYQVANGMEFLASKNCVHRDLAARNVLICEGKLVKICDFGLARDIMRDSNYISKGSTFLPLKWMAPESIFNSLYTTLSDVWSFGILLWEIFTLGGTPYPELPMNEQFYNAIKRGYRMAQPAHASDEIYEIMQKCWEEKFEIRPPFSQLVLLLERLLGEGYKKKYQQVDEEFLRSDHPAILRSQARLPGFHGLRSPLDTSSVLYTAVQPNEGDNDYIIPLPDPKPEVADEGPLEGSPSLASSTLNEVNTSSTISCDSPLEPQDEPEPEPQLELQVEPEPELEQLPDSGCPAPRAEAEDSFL
T1 sequence (P00533 25-1210): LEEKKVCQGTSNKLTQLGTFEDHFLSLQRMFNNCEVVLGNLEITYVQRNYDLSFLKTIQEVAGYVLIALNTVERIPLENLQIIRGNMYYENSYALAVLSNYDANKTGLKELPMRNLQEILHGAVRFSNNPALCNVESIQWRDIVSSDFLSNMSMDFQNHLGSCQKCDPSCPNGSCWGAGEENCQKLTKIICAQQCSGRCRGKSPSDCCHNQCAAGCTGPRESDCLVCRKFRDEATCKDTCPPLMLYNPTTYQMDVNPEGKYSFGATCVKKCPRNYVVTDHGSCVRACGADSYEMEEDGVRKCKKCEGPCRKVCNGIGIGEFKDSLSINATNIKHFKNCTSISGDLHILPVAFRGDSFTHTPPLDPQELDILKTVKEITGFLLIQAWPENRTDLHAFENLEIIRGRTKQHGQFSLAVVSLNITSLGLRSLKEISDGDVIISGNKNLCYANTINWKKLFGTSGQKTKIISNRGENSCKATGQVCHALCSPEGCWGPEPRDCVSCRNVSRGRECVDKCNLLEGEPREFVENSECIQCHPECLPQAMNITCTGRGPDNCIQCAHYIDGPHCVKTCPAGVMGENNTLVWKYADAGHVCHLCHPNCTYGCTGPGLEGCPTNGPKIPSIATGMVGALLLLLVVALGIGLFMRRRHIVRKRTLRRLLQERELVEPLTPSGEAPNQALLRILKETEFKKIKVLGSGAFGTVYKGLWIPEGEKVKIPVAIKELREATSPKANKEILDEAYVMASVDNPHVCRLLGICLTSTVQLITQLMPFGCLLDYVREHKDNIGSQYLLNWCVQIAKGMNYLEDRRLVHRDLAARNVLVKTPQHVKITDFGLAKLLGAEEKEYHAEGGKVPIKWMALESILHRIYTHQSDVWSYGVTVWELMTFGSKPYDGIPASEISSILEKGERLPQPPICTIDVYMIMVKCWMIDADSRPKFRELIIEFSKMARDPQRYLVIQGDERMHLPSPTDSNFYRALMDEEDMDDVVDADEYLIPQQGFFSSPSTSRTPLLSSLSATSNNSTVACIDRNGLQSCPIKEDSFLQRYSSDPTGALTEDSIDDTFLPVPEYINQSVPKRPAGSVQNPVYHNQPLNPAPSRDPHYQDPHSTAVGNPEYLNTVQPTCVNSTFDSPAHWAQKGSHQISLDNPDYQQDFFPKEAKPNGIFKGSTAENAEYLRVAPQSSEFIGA

| Structure (SMILES) | PDGF Kinase %Inhibition (PDGF-R) [%] | Biochem EGFR %Inhibition (EGFR) [%] |
| --- | --- | --- |
| O=C1Nc2ccc(CCCl)cc2C1=Cc1c(F)cccc1C(F)(F)F [10728/G09] | 6.3 | -8.0 |
| COc1ccc2ccccc2c1C=C1C(=O)Nc2c(Br)cc(Br)cc21 [10729/A02] | -25.7 | 10.0 |
| O=C1Nc2ccc(CCCl)cc2C1=Cc1cc(C(F)(F)F)ccc1F [10728/G08] | -11.9 | -5.7 |
| O=C(O)COc1ccccc1C=C1C(=O)Nc2ccc(CCCl)cc21 [10728/G10] | -0.8 | -12.5 |
| O=C1Nc2ccc(S(=O)(=O)Nc3ccc(C(F)(F)F)cc3)cc2C1=Cc1cccc(Oc2ccccc2)c1 [10729/E06] | 24.7 | 43.7 |
| CNS(=O)(=O)c1ccc2c(c1)C(=Cc1cc(OC)c3c(c1)OCO3)C(=O)N2 [10728/D11] | -10.2 | 22.1 |
| COc1cc(C=C2C(=O)Nc3ccc(CCCl)cc32)cc(OC)c1 [10728/G04] | 0.5 | -8.2 |
| O=C1Nc2ccc(CCCl)cc2C1=Cc1ccc2c(c1)Cc1ccccc1-2 [10728/G06] | -13.3 | -14.1 |
| Cc1c(Br)ccc2c1C(=Cc1ccncc1)C(=O)N2 [10729/C09] | -34.8 | 33.2 |
| COc1cc(N(C)C)ccc1C=C1C(=O)Nc2ccc(S(=O)(=O)Nc3ccc(C(F)(F)F)cc3)cc21 [10728/E05] | 5.8 | 7.4 |
| CSc1ccc(C=C2C(=O)Nc3ccc(I)cc32)cc1 [10729/B04] | -22.7 | 63.7 |
| O=C1Nc2c(Br)cc(Br)cc2C1=Cc1ccc(N2CCCC2)cc1 [10729/A10] | -12.8 | 28.7 |
| COc1ccc(C=C2C(=O)Nc3ccc(I)cc32)c2ccccc12 [10729/B03] | -9.4 | 38.2 |
| COc1ccc(OC)c(C=C2C(=O)Nc3ccc(S(=O)(=O)NN4CCOCC4)cc32)c1 [10728/F02] | 7.2 | 4.4 |
| Cc1c(Br)ccc2c1C(=CC1C=CCCC1)C(=O)N2 (stereo not drawn) [10729/C11] | -17.4 | 35.9 |
| O=C1Nc2ccc(I)cc2C1=Cc1cccc(Oc2ccccc2)c1 [10729/B06] | -19.2 | 56.9 |
| O=C1Nc2c(Br)cc(Br)cc2C1=Cc1cccnc1 [10729/A08] | -23.4 | 37.8 |
| O=C1Nc2c(Br)cc(Br)cc2C1=Cc1ccncc1 [10729/A09] | 11.0 | 25.7 |

Reference: EP1247803A2, “Indolinone compounds suitable for modulation of protein kinases” (Sugen, Inc., priority 1996, dated 1998)
